Experiments:
[1] = system: spontaneous marble-burying behaviour of mice; assay: Marble-burying test in mice; type: in vivo; details: Mus musculus, 0.5 h; male NMRI mice, 24 marbles, 30 minutes' free exploration; read-out: ED50 (Efficacy dose 50), inhibition of marble-burying
From the text: Marble-burying Test in Mice This test enables evaluation of the capacity of pharmacological agents to inhibit the spontaneous marble-burying behaviour of mice, the inhibition being predictive of antidepressant and/or anti-impulsive action. Male mice of the NMRI strain weighing from 20 to 25 g on the day of the experiment are placed individually in Macrolon boxes (30×18×19 cm) containing 5 cm of sawdust and covered with a perforated plexiglass plate. Twenty four “tiger's eye” glass marbles are evenly distributed on the sawdust at the periphery of the box. At the end of 30 minutes' free exploration, the animals are removed from the box and the number of buried marbles is counted.

serotonin-reuptake sites = biological target: T1, serotonin-reuptake sites (Rattus norvegicus, UniProt P31652); assay: Determination of affinity for serotonin-reuptake sites in the rat ([3H]-paroxetine competition); type: binding; details: rat frontal cortex membranes, 0.25 nM [3H]-paroxetine, 2 hours at 25° C.
T1 construct: The membranes are prepared from rat frontal cortex; from tissue; host or cells: rat frontal cortex membranes
T1 sequence (P31652 whole entry): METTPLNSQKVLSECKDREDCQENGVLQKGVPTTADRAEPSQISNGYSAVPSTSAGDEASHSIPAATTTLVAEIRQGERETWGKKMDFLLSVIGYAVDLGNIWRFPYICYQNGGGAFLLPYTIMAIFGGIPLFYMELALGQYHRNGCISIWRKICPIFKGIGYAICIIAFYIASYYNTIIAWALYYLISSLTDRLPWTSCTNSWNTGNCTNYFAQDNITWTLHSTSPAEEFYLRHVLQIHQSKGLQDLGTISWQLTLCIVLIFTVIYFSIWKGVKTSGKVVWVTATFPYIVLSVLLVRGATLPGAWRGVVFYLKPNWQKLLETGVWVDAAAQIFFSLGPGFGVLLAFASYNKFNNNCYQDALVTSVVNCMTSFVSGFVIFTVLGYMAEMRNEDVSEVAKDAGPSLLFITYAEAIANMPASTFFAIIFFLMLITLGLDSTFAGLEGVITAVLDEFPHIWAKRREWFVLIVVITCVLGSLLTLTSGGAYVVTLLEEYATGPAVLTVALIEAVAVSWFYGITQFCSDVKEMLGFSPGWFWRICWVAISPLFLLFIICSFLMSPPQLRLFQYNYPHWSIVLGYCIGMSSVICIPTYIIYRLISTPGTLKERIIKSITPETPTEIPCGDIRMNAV
Protocol: Determination of Affinity for Serotonin-reuptake Sites in the Rat The affinity of the compounds of the invention was determined by competition experiments with [^3H]-paroxetine. The membranes are prepared from rat frontal cortex and are incubated in triplicate with 0.25 nM [^3H]-paroxetine and the cold ligand in a final volume of 0.4 ml, for 2 hours at 25° C. The incubation buffer contains 50 mM TRIS-HCl (pH 7.4), 120 mM NaCl and 5 mM KCl. Non-specific binding is determined using 10 μM citalopram. At the end of the incubation, the mixture is filtered through filters and washed three times with 5 ml of cooled buffer. The radioactivity retained on the filters is determined by liquid scintillation counting. The binding isotherms are analysed by non-linear regression to determine the IC50 values. The latter are converted into a dissociation constant (Ki) using the Cheng-Prusoff equation: Ki=IC50/[…] wherein L is the concentration of [^3H]-paroxetine and Kd is the dissociation constant (0.13 nM).

Row | Structure (SMILES) | ED50 [1] | Ki (serotonin-reuptake sites)
1 | Cl.N#Cc1ccc2[nH]cc(CC3CCN(CCc4ccc5c(c4)CC(=O)N5)C3)c2c1 (stereo not drawn) [Example 7, 3-({1-[2-(2-Oxo-2,3-dihydro-1H-indol-5-yl)ethyl]-3-pyrrolidinyl}-methyl)-1H-indole-5-carbonitrile Hydrochloride] | 1.5 mg/kg | –
2 | Cl.N#Cc1ccc2[nH]cc(CC3CCN(CCc4cc5c(cc4Cl)NC(=O)C5)C3)c2c1 (stereo not drawn) [Example 6, 3-({1-[2-(6-Chloro-2-oxo-2,3-dihydro-1H-indol-5-yl)ethyl]-3-pyrrolidinyl}methyl)-1H-indole-5-carbonitrile Hydrochloride] | 3.8 mg/kg | 0.4 nM
